Experiments:
Test in all cases: 50% growth inhibitory concentration (IC50) determination assay
Type in all cases: cell-based
Details in all cases: Iso-Sensitest broth, 0.098 = detection limit
[1] = test system: S. aureus (ATCC29213)
Experimental: (§1) Stock compounds in DMSO were serially two-fold diluted (range from 50 to 0.097 μM final concentration) in 384 wells microtiter plates and inoculated with 49 μL the bacterial suspension in Iso-Sensitest broth medium to have a final cell concentration of ˜5×10^5 CFU/mL in a final volume/well of 50 μL/well. Microtiter plates were incubated at 35±2° C. Bacterial cell growth was determined with the measurement of optical density at λ=600 nm each 20 minutes over a time course of 16 h. […] GP-6 (Example 4.131 disclosed in WO 2012/125746 A1) was used as the reference compound in Table 6-8. […] The data of IC50 over S. aureus (ATCC29213), K. pneumoniae (ATCC10031), and A. baumannii (ATCC17978) are illustrated in Table 6.

[2] = test system: K. pneumoniae (ATCC10031)
Experimental: as §1

[3] = test system: A. baumannii (ATCC17978)
Experimental: as §1

[4] = Acinetobacter baumannii, ATCC17978, A. baumannii ATCC17978

| Structure (SMILES) | IC50 ([1]; Staphylococcus aureus) [µM] | IC50 ([2]; Klebsiella pneumoniae) [µM] | IC50 [3, 4] [µM] | IC50 [1] [µM] | IC50 [2] [µM] | IC50 ([3]; A. baumannii ATCC17978) [µM] |
| --- | --- | --- | --- | --- | --- | --- |
| CNc1cc(F)c(F)c2c1[nH]c1ncc(-c3cnc4c(c3)c(=O)c(C(=O)O)cn4C)c(N3CC(CN(C)C)C(F)(F)C3)c12 (stereo not drawn) [Example 1.143] | < 0.098 | < 0.098 | 0.109 |  |  |  |
| CNc1cc(F)c(F)c2c1[nH]c1ncc(-c3cnc4c(c3)c(=O)c(C(=O)O)cn4C(C)CCO)c(N(C)C)c12 (stereo not drawn) [Example 1.145] | < 0.098 | 0.202 | 0.341 |  |  |  |
| CNc1cc(F)c(F)c2c1[nH]c1ncc(-c3cnc4c(c3)c(=O)c(C(=O)O)cn4CC3(O)CC3)c(N(C)C)c12 [Example 1.146] | < 0.098 | 0.411 | 0.525 |  |  |  |
| CNc1cc(F)c(F)c2c1[nH]c1ncc(-c3cnc4c(c3)c(=O)c(C(=O)O)cn4[C@@H]3CCNC3)c(N(C)C)c12 [Example 1.155] | 3.8 | < 0.098 | 0.328 |  |  |  |
| CNc1cc(F)c(F)c2c1[nH]c1ncc(-c3cnc4c(c3)c(=O)c(C(=O)O)cn4[C@@H]3CCNC3)c(N3CCCC3)c12 [Example 1.156] | < 0.098 | < 0.098 | 0.478 |  |  |  |
| CNc1cc(F)c(F)c2c1[nH]c1ncc(-c3cnc4c(c3)c(=O)c(C(=O)O)cn4C)c(N3C[C@H](C)[C@@H](N(C)C)C3)c12 [Example 1.167] |  |  |  | < 0.098 | < 0.098 | 0.143 |
| CNc1cc(F)c(F)c2c1[nH]c1ncc(-c3cnc4c(c3)c(=O)c(C(=O)O)cn4C)c(N3C[C@H](F)[C@@H](N(C)C)C3)c12 [Example 1.168] | < 0.098 | < 0.098 |  |  |  | 0.287 |
| CNc1cc(F)cc2c1[nH]c1ncc(-c3cnc4c(c3)c(=O)c(C(=O)O)cn4C)c(N3C[C@H](F)[C@@H](N(C)C)C3)c12 [Example 1.169] | < 0.098 | < 0.098 | 0.229 |  |  |  |
| CNc1cc(F)c(F)c2c1[nH]c1ncc(-c3cnc4c(c3)c(=O)c(C(=O)O)cn4C)c(N3CC[C@@H](CN4CCOCC4)C3)c12 [Example 1.174] | < 0.098 | 0.224 | 0.784 |  |  |  |
| CNc1cc(F)c(F)c2c1[nH]c1ncc(-c3cnc4c(c3)c(=O)c(C(=O)O)cn4CC(C)(C)N(C)C)c(N(C)C)c12 [Example 1.178] | < 0.098 | < 0.098 | 0.235 |  |  |  |
| CNc1cc(F)c(F)c2c1[nH]c1ncc(-c3cnc4c(c3)c(=O)c(C(=O)O)cn4N(C)C)c(N3CCOCC3)c12 [Example 1.180] | < 0.098 | 0.112 | 0.353 |  |  |  |
| CNc1cc(F)cc2c1[nH]c1ncc(-c3cnc4c(c3)c(=O)c(C(=O)O)cn4C)c(N3CCCN(C)CC3)c12 [Example 1.185] | 0.321 | < 0.098 | 0.524 |  |  |  |
| CNc1cc(F)c(F)c2c1[nH]c1ncc(-c3cnc4c(c3)c(=O)c(C(=O)O)cn4NC)c(N3CC[C@H]4CCN(C)C4C3)c12 (stereo partly drawn) [Example 1.199] | < 0.098 | < 0.098 | 0.151 |  |  |  |
| CNc1cc(F)c(F)c2c1[nH]c1ncc(-c3cnc4c(c3)c(=O)c(C(=O)O)cn4C)c(N3CCN(C4CC4)CC3)c12 [Example 1.204] | < 0.098 | < 0.098 | 0.201 |  |  |  |
| CNc1cc(F)c(F)c2c1[nH]c1ncc(-c3cnc4c(c3)c(=O)c(C(=O)O)cn4C)c(N3CCCC3)c12 [Example 1.208] | < 0.098 | 0.16 | 0.78 |  |  |  |
| CNc1cc(F)cc2c1[nH]c1ncc(-c3cnc4c(c3)c(=O)c(C(=O)O)cn4NC)c(N3CC4[C@H](CCN4C)C3)c12 (stereo partly drawn) [Example 1.210] | < 0.098 | < 0.098 | < 0.098 |  |  |  |
| CNc1cc(F)c(F)c2c1[nH]c1ncc(-c3cnc4c(c3)c(=O)c(C(=O)O)cn4C)c(N3CC4[C@H](CC[C@H]4CN(C)C)C3)c12 (stereo partly drawn) [Example 1.218] | < 0.098 | < 0.098 | 0.497 |  |  |  |
| CNc1cc(F)c(F)c2c1[nH]c1ncc(-c3cnc4c(c3)c(=O)c(C(=O)O)cn4C)c(N3CCN(C)CC3)c12 [Example 1.226] | 0.11 | < 0.098 | 0.207 |  |  |  |

| Structure (SMILES) | IC50 ([1]; Staphylococcus aureus) [µM] | IC50 ([2]; Klebsiella pneumoniae) [µM] | IC50 [3, 4] [µM] | IC50 [1] [µM] | IC50 [2] [µM] | IC50 ([3]; A. baumannii ATCC17978) [µM] |
| --- | --- | --- | --- | --- | --- | --- |
| CCN1CCN(c2c(-c3cnc4c(c3)c(=O)c(C(=O)O)cn4C)cnc3[nH]c4c(NC)cc(F)c(F)c4c23)CC1 [Example 1.233] | 0.169 | < 0.098 | 0.3 |  |  |  |
| CNc1cc(F)c(F)c2c1[nH]c1ncc(-c3cnc4c(c3)c(=O)c(C(=O)O)cn4C)c(N3CCN(C(C)C)CC3)c12 [Example 1.234] | 0.283 | < 0.098 | 0.821 |  |  |  |
| CNc1cc(F)c(F)c2c1[nH]c1ncc(-c3cnc4c(c3)c(=O)c(C(=O)O)cn4NC)c(N3CCC4(CCN4C)C3)c12 (stereo not drawn) [Example 1.238] | < 0.098 | < 0.098 | 0.308 |  |  |  |
| CNc1cc(F)c(F)c2c1[nH]c1ncc(-c3cnc4c(c3)c(=O)c(C(=O)O)cn4NC)c(N3CCC4(CCCN4C)C3)c12 (stereo not drawn) [Example 1.240] | < 0.098 | < 0.098 | 0.151 |  |  |  |
| CNc1cc(F)c(F)c2c1[nH]c1ncc(-c3cnc4c(c3)c(=O)c(C(=O)O)cn4[C@@H](C)CO)c(N3CCO[C@@H](C)C3)c12 [Example 1.250] | < 0.098 | 0.14 | 0.476 |  |  |  |
| CNc1cc(F)c(F)c2c1[nH]c1ncc(-c3cnc4c(c3)c(=O)c(C(=O)O)cn4C)c(N3CC4[C@H](CCN4CCO)C3)c12 (stereo partly drawn) [Example 1.261] | < 0.098 | < 0.098 | 0.215 |  |  |  |
| CNc1cc(F)c(Cl)c2c1[nH]c1ncc(-c3cnc4c(c3)c(=O)c(C(=O)O)cn4C)c(N3CC[C@H]4CN(C)CC43)c12 (stereo partly drawn) [Example 1.270] | < 0.098 | < 0.098 | 0.048 |  |  |  |
| CNc1cc(Cl)cc2c1[nH]c1ncc(-c3cnc4c(c3)c(=O)c(C(=O)O)cn4C)c(N3CC4C(N(C)C)CO[C@@H]4C3)c12 (stereo partly drawn) [Example 1.277] | < 0.098 | < 0.098 | 0.48 |  |  |  |
| CNc1cc(F)c(F)c2c1[nH]c1ncc(-c3cnc4c(c3)c(=O)c(C(=O)O)cn4NC)c(N3CC4[C@H](CC[C@H]4N(C)C)C3)c12 (stereo partly drawn) [Example 1.284] | < 0.098 | < 0.098 | 0.111 |  |  |  |
| CNc1cc(F)c(F)c2c1[nH]c1ncc(-c3cnc4c(c3)c(=O)c(C(=O)O)cn4CCN(C)C)c(N3CCC(F)(F)C3)c12 [Example 2.02] | < 0.098 | 0.167 | 0.992 |  |  |  |
| CNc1cc(F)c(F)c2c1[nH]c1ncc(-c3cnc4c(c3)c(=O)c(C(=O)O)cn4C3CCN(C)C3)c(N3CCC(F)(F)C3)c12 (stereo not drawn) [Example 2.03] | < 0.098 | < 0.098 | 0.562 |  |  |  |
| CNc1cc(F)c(F)c2c1[nH]c1ncc(-c3cnc4c(c3)c(=O)c(C(=O)O)cn4NC)c(N3C[C@H]4OCCN(C)[C@H]4C3)c12 [Example 3.13A] | < 0.098 | < 0.098 | 0.152 |  |  |  |
| CNc1cc(F)c(F)c2c1[nH]c1ncc(-c3cnc4c(c3)c(=O)c(C(=O)O)cn4NC)c(N3C[C@@H]4OCCN(C)[C@@H]4C3)c12 [Example 3.13B] | < 0.098 | < 0.098 | 0.16 |  |  |  |
| CNc1cc(F)c(F)c2c1[nH]c1ncc(-c3cnc4c(c3)c(=O)c(C(=O)O)cn4C)c(N3C[C@H]4OCCN(C)[C@H]4C3)c12 [Example 3.14A] | < 0.098 | < 0.098 | 0.075 |  |  |  |
| CNc1cc(F)c(F)c2c1[nH]c1ncc(-c3cnc4c(c3)c(=O)c(C(=O)O)cn4C)c(N3C[C@@H]4OCCN(C)[C@@H]4C3)c12 [Example 3.14B] | < 0.098 | < 0.098 | 0.103 |  |  |  |
| CNc1cc(Cl)cc2c1[nH]c1ncc(-c3cnc4c(c3)c(=O)c(C(=O)O)cn4C)c(N3C[C@H]4CCN(C)[C@H]4C3)c12 [Example 3.15A] | < 0.098 | < 0.098 | 0.208 |  |  |  |
| CNc1cc(Cl)cc2c1[nH]c1ncc(-c3cnc4c(c3)c(=O)c(C(=O)O)cn4C)c(N3C[C@@H]4CCN(C)[C@@H]4C3)c12 [Example 3.15B] | < 0.098 | < 0.098 | 0.094 |  |  |  |

Reference: US10662203B2, “Pyrido[2,3-b]indole compounds for the treatment and prophylaxis of bacterial infection” (Hoffmann-La Roche Inc., priority 2017, dated 2020)
